# Data: publication PMC8047731 (ACS Omega, 2021)
# Tests used:
# SNM1A = biological target: T1, SNM1A (Homo sapiens, UniProt Q6PJP8); assay: Gel-based secondary screen validation; assay type: biochemical; conditions: 25 and 6.25 μM compound
# T1 sequence (Q6PJP8 698-1040): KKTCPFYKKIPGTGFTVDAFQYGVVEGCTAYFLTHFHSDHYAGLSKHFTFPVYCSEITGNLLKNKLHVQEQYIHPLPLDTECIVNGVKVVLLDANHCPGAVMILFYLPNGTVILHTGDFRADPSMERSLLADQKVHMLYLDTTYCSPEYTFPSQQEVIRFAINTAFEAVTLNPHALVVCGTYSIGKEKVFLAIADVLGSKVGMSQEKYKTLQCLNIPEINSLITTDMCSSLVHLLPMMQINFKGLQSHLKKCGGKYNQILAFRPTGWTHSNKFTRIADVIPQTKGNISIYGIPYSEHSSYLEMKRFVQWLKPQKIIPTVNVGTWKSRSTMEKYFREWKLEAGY
# HeLa cells = assay: Cisplatin potentiation assay; assay type: cell-based; conditions: 25 μM compound + […] μM cisplatin (LD10), 72 h, alamarBlue
# [1] = test system: short duplex DNA substrate (EtBr-DS); assay: Ethidium bromide displacement assay; assay type: binding; conditions: compound at exonuclease IC50 of SNM1A, 10 min
# [2] = biological target: T2, SNM1A exonuclease activity (Homo sapiens, UniProt Q6PJP8); assay: Gel-based IC50 determination, SNM1A exonuclease activity; conditions: 0.2 nM SNM1A, 110 nM 5P-1F, 60 min, 37 °C, triplicate
# T2 sequence (Q6PJP8 698-1040): T1 sequence (Q6PJP8 698-1040)
# nuclease = conditions: cited from earlier work
compound,measurement,setting,value
"O=C1OC2(c3ccc(O)cc3Oc3cc(O)ccc32)c2ccccc21 [Compound 54, FLUORESCEIN]",Assay interference in the gel-based screen (reason for exclusion),SNM1A,internal fluorescence
"C[C@@H]1CC[C@@]23CCC4(C)[C@@](C=CC5[C@@]6(C)CCC(=O)C(C)(C)C6CC[C@]54C)(OC2=O)C3[C@H]1C (some centres unmarked) [Compound 44, 3-OXOURSAN (28-13)OLIDE]",Assay interference in the gel-based screen (reason for exclusion),SNM1A,internal fluorescence
"Nc1c(S(=O)(=O)O)cc(Nc2ccc(Nc3nc(Cl)nc(Nc4cccc(S(=O)(=O)O)c4)n3)c(S(=O)(=O)O)c2)c2c1C(=O)c1ccccc1C2=O [Compound 30, REACTIVE BLUE 2]",Cell survival with sublethal cisplatin (potentiation),HeLa cells,reduced cell survival
same,Displacement of ethidium bromide from DNA,[1],apparent nonspecific interactions with DNA
"COC(=O)c1cc(O)c(=O)c2c(O)c(O)ccc2c1 [Compound 61, METHYL 7-DESHYDROXYPYROGALLIN-4-CARBOXYLATE]",Displacement of ethidium bromide from DNA,[1],do not appear to significantly displace ethidium bromide
"O=C(O)C1=CC(=C(c2ccc(O)c(C(=O)O)c2)c2ccc(O)c(C(=O)O)c2)C=CC1=O [Compound 20, AURINTRICARBOXYLIC ACID]",Displacement of ethidium bromide from DNA,[1],apparent nonspecific interactions with DNA
same,Exonuclease IC50,[2],nanomolar range
same,Nuclease inhibition,nuclease,nonspecific nuclease inhibitor
"O=C(O[C@@H]1Cc2c(O)cc(O)cc2O[C@@H]1c1cc(O)c(=O)c2c(O)c(O)cc([C@H]3Oc4cc(O)cc(O)c4C[C@H]3OC(=O)c3cc(O)c(O)c(O)c3)c2c1)c1cc(O)c(O)c(O)c1 [Compound 40, […]]",Displacement of ethidium bromide from DNA,[1],apparent nonspecific interactions with DNA
"O=c1cc(-c2ccc(O)c(-c3c(O)cc(O)c4c(=O)cc(-c5ccc(O)cc5)oc34)c2)oc2cc(O)cc(O)c12 [Compound 13, AMENTOFLAVONE]",Cell survival with sublethal cisplatin (potentiation),HeLa cells,reduced cell survival
same,Displacement of ethidium bromide from DNA,[1],do not appear to significantly displace ethidium bromide
